Assay results taken from patent US20220323406A1, “METHODS AND COMPOSITIONS FOR DIFFERENTIATING STEM CELLS” (Massachusetts Institute of Technology, priority 2019, published 2022).
Counter-ions that a name gives are not always drawn.

How the values were obtained:
[1] = tested on: ENR+CD organoids (ISC to Paneth cell differentiation); assay: Primary screen: basal (non-stimulated) lysozyme secretion LYZ.NS, 2.5-D 384-well ENR+CD organoid differentiation; assay type: cell-based, mouse; conditions: primary screen; for Z.LYZ.NS: standard z score
Excerpt: (§1) High-throughput screening.

[2] = tested on: ENR+CD organoids (ISC to Paneth cell differentiation); assay: Primary screen: CCh-stimulated lysozyme secretion LYZ.S, 2.5-D 384-well ENR+CD organoid differentiation; assay type: cell-based, mouse; conditions: primary screen
Excerpt: as §1

ENR+CD organoids = assay: Primary screen: ATP (CellTiter-Glo 3D, CTG) cell number/viability, 2.5-D 384-well ENR+CD organoids; conditions: primary screen; for Z.CTG: standard z score;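 on all read-outs here: compounds given at plating and again on day 3 over a 6-day differentiation from ENR+CV stem-cell-enriched precursors, ATP measured on day 6, plate median as control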

| SMILES | Dose.FC.LYZ.NS ([1]; dose 0.08 uM) | Dose.FC.LYZ.NS ([1]; dose 0.40 uM) | Dose.FC.LYZ.NS ([1]; dose 2.00 uM) | Dose.FC.LYZ.NS ([1]; dose 10.00 uM) | Z.LYZ.NS ([1]; dose 0.08 uM) | Z.LYZ.NS ([1]; dose 0.40 uM) | Z.LYZ.NS ([1]; dose 2.00 uM) | Z.LYZ.NS ([1]; dose 10.00 uM) | Dose.FC.LYZ.S ([2]; dose 0.08 uM) | Dose.FC.LYZ.S ([2]; dose 0.40 uM) | Dose.FC.LYZ.S ([2]; dose 2.00 uM) | Dose.FC.LYZ.S ([2]; dose 10.00 uM) | Dose.FC.CTG (ENR+CD organoids; dose 0.08 uM) | Dose.FC.CTG (ENR+CD organoids; dose 0.40 uM) | Dose.FC.CTG (ENR+CD organoids; dose 2.00 uM) | Dose.FC.CTG (ENR+CD organoids; dose 10.00 uM) | Z.CTG (ENR+CD organoids; dose 0.08 uM) | Z.CTG (ENR+CD organoids; dose 0.40 uM) | Z.CTG (ENR+CD organoids; dose 2.00 uM) | Z.CTG (ENR+CD organoids; dose 10.00 uM) |
| --- | --- | --- | --- | --- | --- | --- | --- | --- | --- | --- | --- | --- | --- | --- | --- | --- | --- | --- | --- | --- |
| CC(=O)O[C@]1(C(C)=O)CC[C@H]2[C@@H]3C=C(Cl)C4=CC(=O)[C@@H]5C[C@@H]5[C@]4(C)[C@H]3CC[C@@]21C [Cyproterone Acetate] | −0.026 log2 fold change | −0.074 log2 fold change | −0.055 log2 fold change | −0.081 log2 fold change | −0.225 | −0.642 | −0.479 | −0.702 | 0.040 log2 fold change | −0.019 log2 fold change | −0.093 log2 fold change | −0.134 log2 fold change | −0.110 log2 fold change | 0.051 log2 fold change | −0.143 log2 fold change | −0.173 log2 fold change |  |  |  |  |
| c1ccc(CNc2nc(NCc3ccccc3)c3ccccc3n2)cc1 [DBeQ] | 0.097 log2 fold change | 0.064 log2 fold change | −0.048 log2 fold change | −0.296 log2 fold change | 0.844 | 0.558 | −0.414 | −2.577 | 0.045 log2 fold change | 0.210 log2 fold change | −0.103 log2 fold change | −0.423 log2 fold change | 0.119 log2 fold change | −0.013 log2 fold change | 0.004 log2 fold change | −1.133 log2 fold change | 0.285 | −0.031 | 0.010 | −2.706 |
| CNC(=O)c1cc(Oc2ccc(NC(=O)Nc3cc(C(C)(C)C)nn3-c3ccc4ncccc4c3)c(F)c2)ccn1 [DCC-2036 (Rebastinib)] | 0.259 log2 fold change | 0.128 log2 fold change | 0.073 log2 fold change | −0.209 log2 fold change | 2.256 | 1.116 | 0.637 | −1.823 | 0.358 log2 fold change | 0.186 log2 fold change | 0.054 log2 fold change | −0.244 log2 fold change | 0.216 log2 fold change | 0.218 log2 fold change | −0.038 log2 fold change | −0.322 log2 fold change | 0.516 | 0.520 | −0.091 | −0.769 |
| CC(C)Oc1ccc(-c2cnc3c(-c4ccnc5ccccc45)cnn3c2)cc1 [DMH1] | 0.018 log2 fold change | 0.026 log2 fold change | 0.014 log2 fold change | −0.075 log2 fold change | 0.155 | 0.231 | 0.124 | −0.657 | 0.078 log2 fold change | 0.054 log2 fold change | 0.035 log2 fold change | −0.092 log2 fold change | −0.031 log2 fold change | −0.079 log2 fold change | −0.002 log2 fold change | −0.001 log2 fold change | −0.075 | −0.188 | −0.004 | −0.003 |
| Cc1ccc2c(=O)c3cccc(CC(=O)O)c3oc2c1C [DMXAA (Vadimezan)] | −0.007 log2 fold change | −0.036 log2 fold change | −0.038 log2 fold change | −0.031 log2 fold change | −0.065 | −0.317 | −0.334 | −0.271 | −0.091 log2 fold change | −0.009 log2 fold change | −0.094 log2 fold change | −0.118 log2 fold change | −0.568 log2 fold change | −0.629 log2 fold change | −0.477 log2 fold change | −0.230 log2 fold change | −1.357 | −1.502 | −1.139 | −0.550 |
| CC(C)(C)c1nc(-c2cccc(NS(=O)(=O)c3c(F)cccc3F)c2F)c(-c2ccnc(N)n2)s1 [Dabrafenib (GSK2118436)] | 0.095 log2 fold change | 0.049 log2 fold change | −0.001 log2 fold change | −0.250 log2 fold change | 0.830 | 0.427 | −0.006 | −2.178 | 0.236 log2 fold change | 0.103 log2 fold change | 0.019 log2 fold change | −0.384 log2 fold change | −0.134 log2 fold change | 0.011 log2 fold change | −0.279 log2 fold change | −0.800 log2 fold change | −0.320 | 0.026 | −0.667 | −1.911 |
| CCC(CC)CC1(C(=O)Nc2ccccc2SC(=O)C(C)C)CCCCC1 [Dalcetrapib (JTT-705, RO4607381)] | 0.055 log2 fold change | −0.037 log2 fold change | −0.034 log2 fold change | −0.074 log2 fold change | 0.475 | −0.324 | −0.296 | −0.643 | 0.049 log2 fold change | 0.104 log2 fold change | 0.098 log2 fold change | −0.113 log2 fold change | 0.112 log2 fold change | −0.006 log2 fold change | 0.079 log2 fold change | 0.136 log2 fold change | 0.268 | −0.014 | 0.188 | 0.324 |
| COc1cccc2c1C(=O)c1c(O)c3c(c(O)c1C2=O)C[C@@](O)(C(C)=O)C[C@@H]3O[C@H]1C[C@H](N)[C@H](O)[C@H](C)O1 [Daunorubicin HCl] | −0.136 log2 fold change | −0.241 log2 fold change | −0.262 log2 fold change | −0.260 log2 fold change | −1.188 | −2.099 | −2.280 | −2.262 | −0.096 log2 fold change | −0.329 log2 fold change | −0.343 log2 fold change | −0.374 log2 fold change | −0.467 log2 fold change | −0.601 log2 fold change | −0.817 log2 fold change | −1.100 log2 fold change |  |  |  |  |
| COc1cc2nc(N3CCN(C(=O)C4COc5ccccc5O4)CC3)nc(N)c2cc1OC (centres unmarked) [Doxazosin Mesylate] | 0.073 log2 fold change | 0.044 log2 fold change | 0.047 log2 fold change | 0.039 log2 fold change | 0.633 | 0.387 | 0.413 | 0.340 | 0.093 log2 fold change | 0.084 log2 fold change | 0.030 log2 fold change | 0.015 log2 fold change | 0.072 log2 fold change | −0.015 log2 fold change | 0.146 log2 fold change | 0.075 log2 fold change |  |  |  |  |
| C[C@]12C=CC(=O)N[C@@H]1CC[C@@H]1[C@@H]2CC[C@]2(C)[C@@H](C(=O)Nc3cc(C(F)(F)F)ccc3C(F)(F)F)CC[C@@H]12 [Dutasteride] | 0.065 log2 fold change | 0.006 log2 fold change | −0.105 log2 fold change | −0.092 log2 fold change | 0.568 | 0.052 | −0.915 | −0.799 | 0.001 log2 fold change | −0.054 log2 fold change | −0.074 log2 fold change | −0.151 log2 fold change | 0.057 log2 fold change | −0.266 log2 fold change | −0.098 log2 fold change | −0.057 log2 fold change |  |  |  |  |
| O=C(N/N=C/c1ccc(O)c(O)c1)c1cc2ccccc2cc1O [Dynasore] | 0.049 log2 fold change | −0.020 log2 fold change | 0.036 log2 fold change | 0.048 log2 fold change | 0.431 | −0.176 | 0.314 | 0.414 | 0.078 log2 fold change | 0.122 log2 fold change | −0.024 log2 fold change | 0.041 log2 fold change | −0.248 log2 fold change | −0.253 log2 fold change | −0.152 log2 fold change | −0.011 log2 fold change |  |  |  |  |
